Read-outs that look alike come from different tables or passages of the source.
Assays:
[1] = tested on: cell-to-cell fusion mediated by HIV-1 (HIV-1HXB2 Env); assay: microbe, parasite or virus in culture; assay type: cell-based; conditions: Human immunodeficiency virus 1; MAGI-CCR5 and HL 2/3 cells, 24 h, β-gal readout
Procedure: To assess the ability of NBD-compounds to block cell-to-cell fusion mediated by HIV-1 we performed cell fusion assay as previously described 3^1-3 with some modifications. […] Following fusion of the two cell lines Tat induce the expression of β-gal enzyme. […] The percent inhibition and the IC50 values were calculated using the GraphPad Prism software.

[2] = tested on: panel of HIV-1 ENV-pseudoviruses (subtype A, A/D, A2/D, A/E, A/G, B, C and D); assay: microbe, parasite or virus in culture; assay type: cell-based
HIV-1 Integrase = biological target: T1, HIV-1 Integrase (Human immunodeficiency virus type 1 group M subtype B, UniProt P04585); assay: HIV-1 Integrase Assay; assay type: biochemical; conditions: HIV-1 Integrase Assay Kit from ExpressBio
T1 construct: HIV-1 Integrase Assay Kit from ExpressBio; purchased ExpressBio (Thurnmont, Md.)
Procedure: HIV-1 Integrase was performed as per the protocol in the HIV-1 Integrase Assay Kit from ExpressBio (Thurnmont, Md.). (See Table 3)

PBMC = assay: Cytotoxicity in PBMC (XTT); assay type: cell-based; conditions: 7 days
Procedure: For the PBMC toxicity assay we used 5×10^5 cells/ml and the cytotoxicity of the compounds was measured after 7 days of incubation as previously reported^8. Following the addition of XTT the soluble intracellular formazan was quantitated colorimetrically at 450 nm 4 h later. The percent of cytotoxicity and the CC50 values were calculated as above. (See Table 4)

[3] = tested on: lab-adapted and primary HIV-1 isolates; assay: microbe, parasite or virus in culture; conditions: Human immunodeficiency virus 1, PBMC
Procedure: (§1) PBMCs were isolated from the blood of healthy donors at the New York Blood Center by standard density gradient centrifugation using Histopaque-1077 (Sigma-Aldrich). The cells were cultured at 37° C. for 2 hr. […] The PHA-stimulated cells (5×10^4 cells/well) were infected with lab-adapted and primary HIV-1 isolates at 500 TCID50 (0.01 MOI) in the absence or presence of inhibitors at graded concentrations. Culture media were replaced every 3 days with fresh media. The supernatants were collected 7 days post-infection and tested for p24 antigen by ELISA. The percent inhibition of p24 production and IC50 values were calculated by the GraphPad Prism software.

[4] = tested on: laboratory-adapted HIV-1 strains; assay: microbe, parasite or virus in culture; assay type: cell-based
MT-2 cells = assay: Cytotoxicity in MT-2 cells (XTT); assay type: cell-based; conditions: 4 days
Procedure: Cytotoxicity of test compounds in MT-2 cells was measured a by colorimetric method using XTT [(sodium 3′-(1-(phenylamino)-carbonyl)-3,4-tetrazolium-bis(4-methoxy-6-nitro) benzenesulfonic acid hydrate)] (PolySciences) as previously described^7. Briefly, 100 μl of a test compound at graded concentrations was added to an equal volume of cells (1×10^5 cells/ml) in 96 well plates followed by incubation at 37° C. for 4 days, which ran parallel to the neutralization assay in MT-2. Following the addition of XTT the soluble intracellular formazan was quantitated colorimetrically at 450 nm 4 h later. […] (See Table 4)

[5] = tested on: lab-adapted and primary HIV-1 isolates; conditions: read-out: IC50 (μm); Laboratory strain BaL, subtype B, PBMC, co-receptor R5
Procedure: as §1

[6] = Human immunodeficiency virus 1, TZM-bl, read-out: IC50 (μM) ± S.D., subtype A2/D, NIH # 11906, ENV QG393.60M.ENV.B7
[7] = Human immunodeficiency virus 1, TZM-bl, read-out: IC50 (μM) ± S.D., subtype A, NIH # 11888, ENV QB726.70M.ENV.C4
[8] = Human immunodeficiency virus 1, TZM-bl, read-out: IC50 (μM) ± S.D., subtype A, NIH # 11889, ENV QB726.70M.ENV.B3
[9] = Human immunodeficiency virus 1, TZM-bl, read-out: IC50 (μM) ± S.D., subtype A/E (potential), NIH # 11603, ENV CRF01_AE clone 269
[10] = Human immunodeficiency virus 1, TZM-bl, read-out: IC50 (μM) ± S.D., subtype A/G, NIH # 11605, ENV CRF02_AG clone 278
[11] = Human immunodeficiency virus 1, TZM-bl, read-out: IC50 (μM) ± S.D., subtype B, ENV B41
[12] = Human immunodeficiency virus 1, TZM-bl, read-out: IC50 (μM) ± S.D., subtype B, NIH # 11018, ENV QH0692, clone 42
[13] = Human immunodeficiency virus 1, TZM-bl, read-out: IC50 (μM) ± S.D., subtype B, NIH # 11022, ENV PVO, clone 4
[14] = Human immunodeficiency virus 1, TZM-bl, read-out: IC50 (μM) ± S.D., subtype B, NIH # 11035, ENV pREJO4541 clone 67
[15] = Human immunodeficiency virus 1, TZM-bl, read-out: IC50 (μM) ± S.D., subtype C, NIH # 11307, ENV Du172, clone 17
[16] = Human immunodeficiency virus 1, TZM-bl, read-out: IC50 (μM) ± S.D., subtype C, NIH # 11311, ENV ZM233M.PB6
[17] = Human immunodeficiency virus 1, TZM-bl, read-out: IC50 (μM) ± S.D., subtype C, NIH # 11313, ENV ZM53M.PB12
[18] = Human immunodeficiency virus 1, TZM-bl, read-out: IC50 (μM) ± S.D., subtype D, NIH # 11918, ENV QD435.100M.ENV.E1

Compound: Cc1nc(C(NC(=O)c2ccc(-c3ccc(Cl)cc3)[nH]2)C2CCCCN2)sc1CO (single isomer, unassigned) [Compound 17]
- IC50 [1]: 10.8 µM
- IC50 [2, 6]: 0.8 ± 0.3 µM
- IC50 ([2]; Human immunodeficiency virus 1, TZM-bl, read-out: IC50 (μM) ± S.D., subtype A, NIH # 11887, ENV Q259env.w6): 1.6 ± 0.1 µM
- IC50 [2, 7]: 1.3 ± 0.3 µM
- IC50 [2, 8]: 1.3 ± 0.4 µM
- IC50 ([2]; Human immunodeficiency virus 1, TZM-bl, read-out: IC50 (μM) ± S.D., subtype A, NIH # 11890, ENV QF495.23M.ENV.A1): 1.3 ± 0.4 µM
- IC50 ([2]; Human immunodeficiency virus 1, TZM-bl, read-out: IC50 (μM) ± S.D., subtype A, NIH # 11891, ENV QF495.23M.ENV.A3): 0.88 ± 0.4 µM
- IC50 ([2]; Human immunodeficiency virus 1, TZM-bl, read-out: IC50 (μM) ± S.D., subtype A, NIH # 11892, ENV QF495.23M.ENV.B2): 0.6 ± 0.4 µM
- IC50 ([2]; Human immunodeficiency virus 1, TZM-bl, read-out: IC50 (μM) ± S.D., subtype A/D, NIH # 11901, ENV QA790.2041.ENV.A4): 1.4 ± 0.05 µM
- IC50 ([2]; Human immunodeficiency virus 1, TZM-bl, read-out: IC50 (μM) ± S.D., subtype A/D, NIH # 11903, ENV QA790.2041.ENV.C8): 1.6 ± 0.2 µM
- IC50 [2, 9]: 1.5 ± 0.3 µM
- IC50 ([2]; Human immunodeficiency virus 1, TZM-bl, read-out: IC50 (μM) ± S.D., subtype A/G, NIH # 11601, ENV CRF02 AG clone 263): 1.4 ± 0.3 µM
- IC50 [2, 10]: 1.3 ± 0.5 µM
- IC50 [2, 11]: 0.68 ± 0.1 µM
- IC50 [2, 12]: 0.52 ± 0.1 µM
- IC50 [2, 13]: 1.9 ± 0.1 µM
- IC50 ([2]; Human immunodeficiency virus 1, TZM-bl, read-out: IC50 (μM) ± S.D., subtype B, NIH # 11033, ENV pWITO4160 clone 33): 1.7 ± 0.1 µM
- IC50 [2, 14]: 1.6 ± 0.3 µM
- IC50 ([2]; Human immunodeficiency virus 1, TZM-bl, read-out: IC50 (μM) ± S.D., subtype B, NIH # 11038, ENV pCAAN5342 clone A2): 0.6 ± 0.07 µM
- IC50 [2, 15]: 1.9 ± 0.5 µM
- IC50 [2, 16]: 1.3 ± 0.1 µM
- IC50 [2, 17]: 1.5 ± 0.2 µM
- IC50 ([2]; Human immunodeficiency virus 1, TZM-bl, read-out: IC50 (μM) ± S.D., subtype D, NIH # 11916, ENV QD435.100M.ENV.B5): 1.7 ± 0.5 µM
- IC50 [2, 18]: 3.7 ± 0.1 µM

Compound: Cc1nc(C(NC(=O)c2ccc(-c3ccc(Cl)cc3)[nH]2)C2CCCCN2)sc1CO (single isomer, unassigned) [Compound 19]
- IC50 [1]: 7.6 µM
- IC50 [2, 7]: 1.5 ± 0.6 µM
- IC50 [2, 9]: 1.7 ± 0.9 µM
- IC50 [2, 10]: 1.8 ± 0.2 µM
- IC50 ([2]; Human immunodeficiency virus 1, TZM-bl, read-out: IC50 (μM) ± S.D., subtype B, NIH # 11578, ENV pWEAUd15.410.5017): 1.7 ± 0.03 µM
- IC50 ([2]; Human immunodeficiency virus 1, TZM-bl, read-out: IC50 (μM) ± S.D., subtype C, NIH # 11310, ENV ZM214M.PL15): 1.7 ± 0.6 µM
- IC50 ([2]; Human immunodeficiency virus 1, TZM-bl, read-out: IC50 (μM) ± S.D., subtype C, NIH # 11314, ENV ZM109F.PB4): 1.9 ± 0.3 µM
- IC50 ([2]; Human immunodeficiency virus 1, TZM-bl, read-out: IC50 (μM) ± S.D., subtype D, NIH # 11912, ENV QA013.701.ENV.M12): 1.7 ± 0.2 µM
- IC50 ([2]; read-out: IC50 (μM) ± S.D., subtype A2/D, NIH # 11906, ENV QG393.60M.ENV.B7): 1.4 ± 0.5 µM
- IC50 ([2]; read-out: IC50 (μM) ± S.D., subtype A, NIH # 11890, ENV QF495.23M.ENV.A1): 0.86 ± 0.4 µM
- IC50 ([2]; read-out: IC50 (μM) ± S.D., subtype A, NIH # 11891, ENV QF495.23M.ENV.A3): 1.3 ± 0.3 µM
- IC50 ([2]; read-out: IC50 (μM) ± S.D., subtype A, NIH # 11892, ENV QF495.23M.ENV.B2): 1.1 ± 0.2 µM
- IC50 ([2]; read-out: IC50 (μM) ± S.D., subtype A/D, NIH # 11903, ENV QA790.2041.ENV.C8): 1.6 ± 0.2 µM
- IC50 ([2]; read-out: IC50 (μM) ± S.D., subtype B, ENV B41): 1.1 ± 0.4 µM
- IC50 ([2]; read-out: IC50 (μM) ± S.D., subtype B, NIH # 11018, ENV QH0692, clone 42): 0.9 ± 0.3 µM
- IC50 ([2]; read-out: IC50 (μM) ± S.D., subtype B, NIH # 11022, ENV PVO, clone 4): 1.1 ± 0.2 µM
- IC50 ([2]; read-out: IC50 (μM) ± S.D., subtype B, NIH # 11024, ENV AC10.0, clone 29): 0.74 ± 0.25 µM
- IC50 ([2]; read-out: IC50 (μM) ± S.D., subtype B, NIH # 11038, ENV pCAAN5342 clone A2): 0.64 ± 0.01 µM
- IC50 ([2]; subtype A, NIH # 11889, ENV QB726.70M.ENV.B3, read-out: IC50 (μM) ± S.D.): 2.4 ± 0.9 µM

Compound: Cc1nc(C(CN)NC(=O)c2ccc(-c3ccc(Cl)cc3)[nH]2)sc1CO (single isomer, unassigned) [Compound 39]
- IC50 (HIV-1 Integrase): > 100 µM

Compound: Cc1nc(C(NC(=O)c2ccc(-c3ccc(Cl)cc3)[nH]2)C2CCCCN2)sc1CO (centres unmarked) [Compound 15]
- CC50 (PBMC): ~36000 nM
- IC50 ([3]; read-out: IC50 (μm), Laboratory strain BaL, subtype B, PBMC, co-receptor R5): 3700 ± 400 nM
- IC50 ([3]; read-out: IC50 (μm), Primary isolate 93TH060, subtype E, PBMC, co-receptor R5): 5500 ± 1200 nM
- IC50 [2, 6]: 1.7 ± 0.2 µM
- IC50 [2, 8]: 1.5 ± 0.9 µM
- IC50 ([2]; Human immunodeficiency virus 1, TZM-bl, read-out: IC50 (μM) ± S.D., subtype A/G, NIH # 11602, ENV CRF02_AG clone 266): 1.6 ± 0.5 µM
- IC50 [2, 11]: 1.1 ± 0.1 µM
- IC50 [2, 12]: 0.7 ± 0.2 µM
- IC50 [2, 13]: 1.7 ± 0.1 µM
- IC50 ([2]; Human immunodeficiency virus 1, TZM-bl, read-out: IC50 (μM) ± S.D., subtype B, NIH # 11023, ENV TRO, clone 11): 1.3 ± 0.2 µM
- IC50 [2, 14]: 1.8 ± 0.2 µM
- IC50 [2, 15]: 1.5 ± 0.3 µM
- IC50 [2, 16]: 1.4 ± 0.2 µM
- IC50 [2, 17]: 1.3 ± 0.2 µM
- IC50 [2, 18]: 4 ± 0.8 µM
- IC50 ([2]; read-out: IC50 (μM) ± S.D., subtype B, NIH # 11058, ENV SC422661.8): 0.6 ± 0.1 µM
- IC50 ([2]; subtype A, ENV BG505-T332N, read-out: IC50 (μM) ± S.D.): 2.4 ± 1 µM
- IC50 ([2]; subtype D, NIH # 11912, ENV QA013.701.ENV.M12, read-out: IC50 (μM) ± S.D.): 2.4 ± 0.2 µM
- IC50 ([4]; Human immunodeficiency virus 1, MT2, read-out: IC50 (μm), Laboratory strain RF, subtype B, MT-2, co-receptor R5X4): 7300 ± 600 nM

Compound: CC1(C)CC(NC(=O)C(=O)Nc2ccc(Cl)cc2)CC(C)(C)N1 [NBD-556]
- CC50 (PBMC): > 280000 nM
- IC50 (HIV-1 Integrase): > 200 µM
- CC50 (MT-2 cells): > 280000 nM
- IC50 [5]: 118000 nM
- IC50 ([4]; Laboratory strain SF2, subtype B, MT-2, co-receptor R5X4, read-out: IC50 (μm)): 118000 nM
